This is an account of results in PubChem BioAssay AID387.

The test has as its target Farnesyl pyrophosphate synthase (Homo sapiens) (UniProt P14324). As to the kind of experiment: FDPS binders by thermal shift, biophysical, DSF, SYPRO orange, purified protein (AID 387). To be noted: at 10 µM, protein 2 µM, buffer 10 mM HEPES, pH 7.5, NaCl 150 mM, MgCl4 50 µM, active compounds read high.

SMILES strings stand for the structures.

Chain of Farnesyl pyrophosphate synthase (Homo sapiens) (P14324 whole entry, looked up): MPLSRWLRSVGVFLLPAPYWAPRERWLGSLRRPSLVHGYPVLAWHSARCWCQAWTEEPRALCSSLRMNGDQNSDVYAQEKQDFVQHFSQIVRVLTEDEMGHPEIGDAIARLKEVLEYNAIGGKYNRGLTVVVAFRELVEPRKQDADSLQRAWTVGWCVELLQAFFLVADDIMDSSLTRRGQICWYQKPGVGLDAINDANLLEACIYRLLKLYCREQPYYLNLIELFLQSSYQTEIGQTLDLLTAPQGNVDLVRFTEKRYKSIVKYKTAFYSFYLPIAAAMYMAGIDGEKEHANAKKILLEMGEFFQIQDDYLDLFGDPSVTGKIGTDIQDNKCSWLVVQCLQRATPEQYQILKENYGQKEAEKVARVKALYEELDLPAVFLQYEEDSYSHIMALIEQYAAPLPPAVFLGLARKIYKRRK

Consider `O=[P+](O)C(O)(Cc1cccnc1)P(=O)(O)O` (stereo unspecified), for which the Tm shift is 4.13 Celsius.
